Assay results taken from paper PMC5062169, “Structural basis for ligand recognition by a Cache chemosensory domain that mediates carboxylate sensing in Pseudomonas syringae” (Scientific Reports, 2016).
Peptide text beside a SMILES is read from it.

Experiments:
[1] = biological target: T1, PscD (PscD-SD, Cache sensor domain of chemoreceptor PscD) (Pseudomonas syringae, UniProt A0ABY1U976); assay: ITC; thermal shift; assay type: binding
T1 construct: gene CFBP3846_03581; sensor domain, Gln31-Trp188, N-terminal His6 tag

[2] = biological target: T2, PscD (PscD-SD, Cache sensor domain of chemoreceptor PscD) (Pseudomonas syringae, UniProt A0ABY1U976); details: Biolog plate compound, exact concentration unknown; binder
T2 construct: gene CFBP3846_03581; sensor domain, Gln31-Trp188, N-terminal His6 tag
T2 sequence (A0ABY1U976 31-188): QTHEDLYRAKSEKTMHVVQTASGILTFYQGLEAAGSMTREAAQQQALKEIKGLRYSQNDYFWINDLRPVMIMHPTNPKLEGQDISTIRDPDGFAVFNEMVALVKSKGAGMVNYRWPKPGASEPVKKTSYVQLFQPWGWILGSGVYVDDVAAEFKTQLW
From the text: We used high-throughput fluorescence thermal shift (FTS) assays (as described previously[16]) to screen for potential ligands of PscD-SD. FTS assays are based on the principle that ligands stabilise proteins upon binding, causing an increase in the melting temperature of the protein[22][23]. Binding can therefore be rapidly screened by measuring the difference in the temperature midpoint of unfolding (ΔTm) of a protein in the presence and absence of potential ligands. In our FTS assays, the Tm was measured by monitoring an increase in fluorescence of a dye with affinity for hydrophobic parts of the protein (i.e. SYPRO Orange), which are exposed as the protein unfolds. We screened the recombinant PscD-SD protein in FTS assays against the compounds in Biolog Phenotype Microarray (PM) plates 1 and 2 (Supplementary Tables 1 and 2). Each plate contains 95 different compounds (e.g., organic acids, sugars) and a water (no ligand) control. For use in FTS assays, the compounds were resuspended directly in water, thus generating a library of biologically relevant potential ligands. […] Fluorescent thermal shift (FTS) assays were conducted as reported previously. PscD-SD was screened for potential ligands against Biolog Phenotype Microarray (PM) plates 1 and 2 (Biolog, Hayward, CA, USA). For initial qualitative, high-throughput screening, ligands were prepared by dissolving Biolog PM compounds in 50 μL of water (each) to obtain a final concentration of approximately 10–20 mM (the exact concentrations vary from well-to-well). Screens were set up in Lightcycler 480 multiwell plates (Roche Diagnostics, Auckland, NZ) with 20 μM protein, a 5x concentration of SYPRO orange (Life Technologies, Carlsbad, CA, USA) and 5 μL of the test compound (i.e. resuspended Biolog ligands) added to each well. The plate was covered with Lightcycler 480 sealing film (Roche Diagnostics) and fluorescence signal was monitored as the temperature was increased from 20 °C to 80 °C at a rate of 1.2 °C.min^−1 in a Lightcycler 480 (Roche Diagnostics). Initial hits were further tested using known concentrations (0, 1, 2, 5 and 10 mM) of each potential ligand to confirm binding. The ligands were prepared as 10x stocks, 2 μL were added to each well, and the experiments were conducted as described above. The first derivative values (−dF/dt) from the raw fluorescence data were used to determine the melting temperature (Tm). Three biological replicates (from independently cultured and purified batches of protein) were performed for each plate screened.

[3] = biological target: T1, PscD (PscD-SD, Cache sensor domain of chemoreceptor PscD); assay: ITC; X-ray crystal structure (propionate soak); thermal shift; assay type: binding

Structure (SMILES) | Δ Tm [2] | further results
O=C(O)CO [glycolate] | 1.13 ± 0.00 °C | Kd [1]: 23 µM
CCC(=O)O [propionate] | 2.66 ± 0.11 °C | Kd [3]: 101 µM
NCC(=O)N[C@@H](CCC(=O)O)C(=O)O [Glycyl-L-Glutamic Acid] (H-Gly-Glu-OH) | 0.00 ± 0.00 °C | 
Nc1ncnc2c1ncn2[C@H]1C[C@H](O)[C@@H](CO)O1 [2-Deoxy-Adenosine] | 0.17 ± 0.05 °C | 
NC(=O)[C@H]1O[C@@H](O)[C@H](O)[C@@H](O)[C@@H]1O [Glucuronamide] | 0.17 ± 0.06 °C | 
O=C(O)C[C@@H](O)C(=O)O [D-Malic Acid] | 0.17 ± 0.05 °C | 
CO[C@@H]1O[C@H](CO)[C@@H](O)[C@H](O)[C@H]1O [β-Methyl-D-Glucoside] | 0.07 ± 0.04 °C | 
C[C@H](N)C(=O)O [L-Alanine] | 0.10 ± 0.03 °C | 
O[C@@H]1[C@H](O)[C@H](O)CO[C@H]1O [D-Ribose] | 0.12 ±0.05 °C | 
O=C(O)CCC(=O)O [Succinic Acid] | 0.10 ± 0.03 °C | 
O[C@@H]1[C@@H](O)[C@@H](O)CO[C@H]1O [L-Arabinose] | 0.05 ± 0.07 °C | 
O=C(O)Cc1ccc(O)cc1 [p-Hydroxy Phenyl Acetic Acid] | 0.15 ± 0.04 °C | 
CC(O)CO (stereo not drawn) [1,2-Propanediol] | 0.12 ± 0.05 °C | 
O=C(O)[C@H](O)[C@@H](O)[C@H](O)[C@H](O)CO [D-Gluconic Acid] | 0.17 ± 0.02 °C | 
O=C(O)CC(CC(=O)O)C(=O)O [Tricarballylic Acid] | -0.03 ± 0.05 °C | 
COC(=O)C(C)=O [Methyl Pyruvate] | 0.48 ± 0.13 °C | 
OC[C@H]1O[C@@](CO)(O[C@H]2O[C@H](CO)[C@@H](O)[C@H](O)[C@H]2O)[C@@H](O)[C@@H]1O [Sucrose] | 0.17 ± 0.05 °C | 

Structure (SMILES) | Δ Tm [2] | further results
O=c1[nH]cnc2c1ncn2[C@@H]1O[C@H](CO)[C@@H](O)[C@H]1O [Inosine] | 0.15 ± 0.05 °C | 
NC(=O)CC[C@H](N)C(=O)O [L-Glutamine] | 0.00 ± 0.00 °C | 
NCCO [2-Aminoethanol] | 0.15 ± 0.05 °C | 
O=C(O)[C@@H]1CCCN1 [L-Proline] | 0.07 ± 0.04 °C | 
O=C(O)CCC(=O)C(=O)O [α-Keto-Glutaric Acid] | 0.17 ± 0.02 °C | 
CCC(O)C(=O)O (stereo not drawn) [α-Hydroxy Butyric Acid] | 0.17 ± 0.05 °C | 
Nc1ncnc2c1ncn2[C@@H]1O[C@H](CO)[C@@H](O)[C@H]1O [Adenosine] | 0.15 ± 0.05 °C | 
CC(=O)O [acetate] |  | Kd ([1]; read-out: Kd): 31 µM
N[C@H](CO)C(=O)O [D-Serine] | 0.00 ± 0.00 °C | 
O=c1ccn([C@@H]2O[C@H](CO)[C@@H](O)[C@H]2O)c(=O)[nH]1 [Uridine] | 0.15 ± 0.05 °C | 
CC(=O)C(=O)O [pyruvate] | 1.01 ± 0.03 °C | Kd ([1]; read-out: Kd): 356 µM
N[C@@H](CC(=O)O)C(=O)O [L-Aspartic Acid] | 0.17 ± 0.05 °C | 
O=C(O)CC(Br)C(=O)O (stereo not drawn) [Bromo Succinic Acid] | 0.05 ± 0.10 °C | 
Cc1cn([C@H]2C[C@H](O)[C@@H](CO)O2)c(=O)[nH]c1=O [Thymidine] | 0.15 ± 0.05 °C | 
C[C@@H](N)C(=O)O [D-Alanine] | 0.12 ± 0.03 °C | 
OC[C@H]1O[C@@H](O[C@@H]2[C@@H](CO)OC(O)(CO)[C@H]2O)[C@H](O)[C@@H](O)[C@H]1O (mixture of isomers) [Lactulose] | 0.20 ± 0.03 °C | 
